The source of these data is US20060008891A1, “Cathepsin G-related peptides as modulators of formylpeptide receptors (FPR)” (The Government of USA as repersented by the Secretary, …, priority 2004, published 2006).

Assay [1] deals with T1, FPR (Homo sapiens, UniProt P21462).
T1 construct: expressed in transfected cells; host or cells: Rat basophilic leukemia (RBL) cells, stably transfected (ETFR cells); gift of H. Ali and R. Snyderman, Duke University
T1 sequence (P21462 1-350): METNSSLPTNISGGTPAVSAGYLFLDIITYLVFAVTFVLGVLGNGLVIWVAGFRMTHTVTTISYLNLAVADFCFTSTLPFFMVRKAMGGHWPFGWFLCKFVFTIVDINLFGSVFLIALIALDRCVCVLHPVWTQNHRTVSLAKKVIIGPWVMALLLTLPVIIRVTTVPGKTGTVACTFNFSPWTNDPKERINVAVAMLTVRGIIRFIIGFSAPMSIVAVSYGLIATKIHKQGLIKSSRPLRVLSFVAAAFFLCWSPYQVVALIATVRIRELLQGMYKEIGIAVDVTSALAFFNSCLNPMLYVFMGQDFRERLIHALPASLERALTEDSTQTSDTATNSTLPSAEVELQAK
Description: 3[H]-fMLF binding competition on monocytes and ETFR cells. Particulars: 3 nM 3[H]-fMLF. An excerpt:
The cells were then filtered onto Whatman paper discs, which were air-dried and measured for […].

In the next assay the test system is Akt. The experiment in a line: Phosphorylation of Akt in ETFR cells (Western blot). The assay is classed as cell-based, rat. The method, then:
ETFR cells were plated in Petri dishes and cultured in DMEM at 37° C. in humidified 5% CO2 atmosphere for 48 h. After further culture in serum-free DMEM overnight, the cells were treated with stimulants for indicated time periods. The reaction was stopped by adding 1 ml ice-cold PBS, and the cells were lysed in 1×SDS lysis buffer (62.5 mM Tris-HCl, 2% w/v SDS, 10% glycerol, 50 mM DTT, pH 6.8) and harvested into tubes for sonication. Proteins (50 μg for each sample) were resolved by SDS-PAGE and transferred onto nitrocellulose membranes (Bio-Rad, Hercules, Calif.). The membranes were blocked for 2 h at room temperature in 3% non-fat milk prepared in Tris-buffered saline-T (10 mM Tris-HCl, pH 7.5, 150 mM NaCl, 0.1% Tween 20) and probed with anti-p-ERK1/2, p-p38 MAPK, or p-Akt (1:1000) at room temperature for 1-2 h or at 4° C. overnight. The membranes were then washed and incubated with horseradish peroxidase-conjugated secondary antibodies diluted in Tris-buffered saline-T for 1 h at room temperature. The immune complexes on the membranes were visualized using ECL reagents. Total ERK1/2, p38 MAPK, and Akt were visualized by stripping the same membrane and probing with antibodies against total ERK1/2, p38 MAPK, and Akt.
In general terms: A western blot detects proteins with antibodies after separation by electrophoresis.

Assay [2] deals with T1, FPR. The experiment in a line: FPR cell surface expression (FACS), ETFR cells and monocytes. It counts as cell-based. Particulars: 5 μg/ml CaG or 1 μM fMLF, 37° C. 30 min. How it is done:
Cell surface expression of FPR was monitored by a flow cytometer (FACS). Monocytes and ETFR cells (1×10^6 cells/sample) were pretreated with medium or stimulants at 37° C. for 30 minutes. After two washes with cold FACS buffer (DPBS, 1% FCS, 0.02% sodium azide, and 5 mM EDTA, pH7.4), the cells were blocked with 5% normal rat serum followed by incubation with a monoclonal anti-human FPR antibody or isotype matched IgG on ice for 30 min. After three washes with FACS buffer, FITC-labeled rat anti-mouse antibody (PharMingen) was applied and incubated on ice for 30 min. The cells were then washed twice with FACS buffer and analyzed immediately by flow cytometry (Becton Dickinson, San Jose, Calif.).

The subject of a further assay is neutrophils. Description: Calcium flux (Fura-2), neutrophils. It counts as cell-based, human. For orientation: Calcium assays in cells follow changes in intracellular calcium, usually with a dye or a luminescent sensor.
Another assay concerns monocytes. Description: Calcium flux (Fura-2), monocytes. The assay is classed as cell-based, human. How it is done:
Monocytes or ETFR cells (10^7 cells/ml in RPMI 1640 containing 10% FBS) were loaded with 5 μM Fura-2 at room temperature (30 min for monocytes, 60 min for ETFR cells) in the dark. The cells were washed and resuspended (0.5×10^6 cells/ml) in saline buffer (138 mM NaCl, 6 mM KCl, 1 mM CaCl2, 10 mM HEPES, 5 mM glucose, and 1% BSA, pH 7.4). Two milliliters of the cell suspension were transferred to a quartz cuvette, which was placed in a luminescence spectrometer LS55 (Perkin-Elmer, Beaconsfield, UK). Calcium mobilization was measured by recording the ratio of the fluorescence excited at 340 and 380 nm in response to stimulants.

Where [3] appears, read: concentrations up to 20 μg/ml (800 nM).

Entries after “also recorded” stand apart in the source; their conditions may differ.

“CaG: Cathepsin G, serine protease purified from neutrophil granules, purchased from Athens Research & Technology”: the “IC50, displacement of 3[H]-fMLF binding” value in the assay with FPR [1] came out at 2.5 µg/mL. For the same substance, in the assay on Akt, the “time to activation of Akt” value was in the range of 1 to 5 min. The “down-regulation of FPR from the cell surface” value with FPR [2] is given as “weaker, but significant ability of CaG to down-regulate FPR”. The “Ca2+ flux” value in the assay with neutrophils (CaG 10 μg/ml) and with monocytes (CaG 10 μg/ml) was “failed to induce significant Ca^2+ flux” throughout. Moreover, the “attenuation of Ca2+ response to fMLF” value in the assay with neutrophils (CaG 10 μg/ml, 0.1 nM fMLF) was “attenuated cell response induced by low concentrations of fMLF; also recorded: significantly attenuated cell response to 0.1 nM fMLF”; with monocytes (CaG 10 μg/ml, 0.1 nM fMLF) it was “attenuated cell response induced by low concentrations of fMLF; also recorded: significantly attenuated cell response to 0.1 nM fMLF”. In addition, the “Ca2+ mobilizing activity” value in the assay on neutrophils (setting [3]) and in the assay with monocytes (setting [3]) was “lacked significant Ca^2+ mobilizing activity” throughout.
